ChEMBL document CHEMBL5042493, “Enhancing monoamine oxidase B inhibitory activity via chiral fluorination: Structure-activity relationship, biological evaluation, and molecular docking study” (Eur J Med Chem, 2022)
The source made the active and inactive calls. The rule behind the calls is not given here.

Assays:
[1] = Metabolic stability in human liver microsome assessed as half life at 1 uM measured after 60 min in presence of NADPH by LC-MS/MS analysis; type: ADME; conditions: liver microsomes
Mus musculus [2] = experiment: Neuroprotective activity against MPTP-induced C57BL/6 mouse model of Parkinson's disease assessed as increase in DA level in striatum at 1.25 to 5 mg/kg, ip pretreated with MPTP for 4 hrs followed by incubation with compound for five times at 24 hrs interval and measured after 30 mins by HPLC electrochemical detection method in the presence of L-dopa and benserazide; type: functional, organism-based; conditions: dose 1.25-5 mg/kg, time 24.5 hrs
Cytochrome P450 2D6 = Cytochrome P450 2D6 (Homo sapiens, UniProt P10635); experiment: Inhibition of human CYP2D6 preincubated for 10 min followed by addition of NADPH and measured after 10 min by LC-MS/MS analysis; type: ADME
Chain of Cytochrome P450 2D6 (P10635 whole entry): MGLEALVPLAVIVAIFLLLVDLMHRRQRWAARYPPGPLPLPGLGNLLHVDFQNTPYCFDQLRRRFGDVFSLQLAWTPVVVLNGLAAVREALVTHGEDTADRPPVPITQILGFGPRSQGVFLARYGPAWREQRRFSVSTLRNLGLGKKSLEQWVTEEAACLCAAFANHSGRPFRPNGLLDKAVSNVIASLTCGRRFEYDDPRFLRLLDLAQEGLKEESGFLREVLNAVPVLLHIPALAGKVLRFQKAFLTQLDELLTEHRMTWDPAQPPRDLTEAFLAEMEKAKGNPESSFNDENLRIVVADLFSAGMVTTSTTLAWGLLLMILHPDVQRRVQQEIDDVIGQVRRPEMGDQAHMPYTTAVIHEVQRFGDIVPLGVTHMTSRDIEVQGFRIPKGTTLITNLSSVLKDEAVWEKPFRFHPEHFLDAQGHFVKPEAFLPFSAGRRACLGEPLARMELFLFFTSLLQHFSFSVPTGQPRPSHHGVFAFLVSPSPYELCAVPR

Cytochrome P450 3A4 = Cytochrome P450 3A4 (Homo sapiens, UniProt P08684); experiment: Inhibition of human CYP3A4 preincubated for 10 min followed by addition of NADPH and measured after 5 min by LC-MS/MS analysis; type: ADME
Chain of Cytochrome P450 3A4 (P08684 whole entry): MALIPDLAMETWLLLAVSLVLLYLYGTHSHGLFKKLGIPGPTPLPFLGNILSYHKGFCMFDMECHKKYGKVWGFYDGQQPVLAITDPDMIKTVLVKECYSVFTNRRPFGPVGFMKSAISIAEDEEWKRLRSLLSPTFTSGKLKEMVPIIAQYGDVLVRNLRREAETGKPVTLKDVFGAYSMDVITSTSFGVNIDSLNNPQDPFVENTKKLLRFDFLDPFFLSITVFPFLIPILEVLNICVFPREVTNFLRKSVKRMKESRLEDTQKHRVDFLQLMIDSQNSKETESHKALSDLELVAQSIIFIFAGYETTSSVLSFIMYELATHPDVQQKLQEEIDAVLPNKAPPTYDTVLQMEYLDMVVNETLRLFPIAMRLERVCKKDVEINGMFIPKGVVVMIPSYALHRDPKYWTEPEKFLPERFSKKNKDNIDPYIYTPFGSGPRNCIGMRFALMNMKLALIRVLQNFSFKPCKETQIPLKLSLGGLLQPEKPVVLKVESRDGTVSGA

[3] = Clearance in Cynomolgus monkey rat at 1 mg/kg, iv measured upto 24 hrs; type: ADME, organism-based, Macaca fascicularis; conditions: in vivo
[4] = Plasma protein binding in rat assessed as unbound fraction at 1 uM measured after 5 hrs by LC-MS/MS analysis; type: ADME, cell-free
[5] = Half life in Sprague dawley rat at 5 mg/kg, po measured upto 24 hrs; type: ADME, organism-based; conditions: in vivo
[6] = Half life in Cynomolgus monkey rat at 5 mg/kg, po measured upto 24 hrs; type: ADME, organism-based, Macaca fascicularis; conditions: in vivo
Cytochrome P450 2C9 = Cytochrome P450 2C9 (Homo sapiens, UniProt P11712); experiment: Inhibition of human CYP2C9 preincubated for 10 min followed by addition of NADPH and measured after 10 min by LC-MS/MS analysis; type: ADME
Chain of Cytochrome P450 2C9 (P11712 whole entry): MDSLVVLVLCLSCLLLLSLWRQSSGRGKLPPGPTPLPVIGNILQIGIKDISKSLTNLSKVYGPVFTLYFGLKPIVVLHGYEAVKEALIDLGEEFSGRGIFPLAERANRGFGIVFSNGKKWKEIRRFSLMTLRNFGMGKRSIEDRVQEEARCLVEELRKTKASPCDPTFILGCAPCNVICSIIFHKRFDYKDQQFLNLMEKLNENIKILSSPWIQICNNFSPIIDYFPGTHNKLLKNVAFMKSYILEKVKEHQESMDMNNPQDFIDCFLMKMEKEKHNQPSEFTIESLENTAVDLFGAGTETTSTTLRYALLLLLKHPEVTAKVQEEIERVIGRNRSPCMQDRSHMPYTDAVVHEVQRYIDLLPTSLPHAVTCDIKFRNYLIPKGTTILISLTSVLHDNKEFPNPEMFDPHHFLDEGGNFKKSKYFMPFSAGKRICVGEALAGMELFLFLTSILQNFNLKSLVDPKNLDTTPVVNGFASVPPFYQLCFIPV

[7] = Metabolic stability in rat liver microsome assessed as half life at 1 uM measured after 60 min in presence of NADPH by LC-MS/MS analysis; type: ADME; conditions: liver microsomes
[8] = AUC (0-t) in Sprague dawley rat at 5 mg/kg, po measured upto 24 hrs; type: ADME, organism-based; set-up: route oral, dose 5 mg/kg, time <=24; conditions: in vivo
[9] = Oral bioavailability in Cynomolgus monkey rat at 5 mg/kg measured upto 24 hrs; type: ADME, organism-based, Macaca fascicularis; conditions: in vivo
Mus musculus [10] = experiment: In vivo inhibition of MAO-B in ICR mouse brain at 0.4 to 2 mg/kg, ip administered once a week for 21 days by fluorescence based monoamine oxidase assay; type: functional, organism-based; conditions: dose 0.4-2 mg/kg, time 21.0 day
[11] = Cmax in Cynomolgus monkey rat at 5 mg/kg, po measured upto 24 hrs; type: ADME, organism-based, Macaca fascicularis; set-up: route oral, dose 5 mg/kg, time <=24; conditions: in vivo
[12] = Cmax in Sprague dawley rat at 5 mg/kg, po measured upto 24 hrs; type: ADME, organism-based; set-up: route oral, dose 5 mg/kg, time <=24; conditions: in vivo
Homo sapiens = organism: Homo sapiens; experiment: Selectivity index, ratio of IC50 for recombinant human MAO-A expressed in Sf9 cells to IC50 for recombinant human MAO-B expressed in Sf9 cells
Cytochrome P450 1A2 = biological target: T1, Cytochrome P450 1A2 (Homo sapiens, UniProt P05177); experiment: Inhibition of human CYP1A2 preincubated for 10 min followed by addition of NADPH and measured after 10 min by LC-MS/MS analysis; type: ADME
T1 sequence (P05177 whole entry): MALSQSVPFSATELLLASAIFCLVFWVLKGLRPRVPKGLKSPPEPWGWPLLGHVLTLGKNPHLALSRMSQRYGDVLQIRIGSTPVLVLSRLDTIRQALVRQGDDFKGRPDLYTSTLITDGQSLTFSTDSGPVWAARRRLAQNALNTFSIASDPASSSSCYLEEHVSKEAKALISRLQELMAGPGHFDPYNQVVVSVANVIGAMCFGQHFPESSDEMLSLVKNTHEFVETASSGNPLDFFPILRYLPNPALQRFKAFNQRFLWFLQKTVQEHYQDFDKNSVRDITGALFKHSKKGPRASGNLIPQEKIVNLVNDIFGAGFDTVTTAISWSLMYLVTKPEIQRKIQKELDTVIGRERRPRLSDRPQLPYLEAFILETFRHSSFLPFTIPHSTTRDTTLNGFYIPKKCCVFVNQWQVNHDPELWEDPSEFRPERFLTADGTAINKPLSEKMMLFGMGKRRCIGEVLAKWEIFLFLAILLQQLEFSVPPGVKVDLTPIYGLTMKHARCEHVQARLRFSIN

Salmonella typhimurium = experiment: Genotoxicity in Salmonella typhimurium by Ames test; type: toxicity, organism-based; conditions: salmonella enterica subsp. enterica serovar typhimurium
[13] = Metabolic stability in dog liver microsome assessed as half life at 1 uM measured after 60 min in presence of NADPH by LC-MS/MS analysis; type: ADME, Canis lupus familiaris; conditions: liver microsomes
Cytochrome P450 3A5 = Cytochrome P450 3A5 (Homo sapiens, UniProt P20815); experiment: Inhibition of human CYP3A5 preincubated for 10 min followed by addition of NADPH and measured after 5 min by LC-MS/MS analysis; type: ADME
Chain of Cytochrome P450 3A5 (P20815 whole entry): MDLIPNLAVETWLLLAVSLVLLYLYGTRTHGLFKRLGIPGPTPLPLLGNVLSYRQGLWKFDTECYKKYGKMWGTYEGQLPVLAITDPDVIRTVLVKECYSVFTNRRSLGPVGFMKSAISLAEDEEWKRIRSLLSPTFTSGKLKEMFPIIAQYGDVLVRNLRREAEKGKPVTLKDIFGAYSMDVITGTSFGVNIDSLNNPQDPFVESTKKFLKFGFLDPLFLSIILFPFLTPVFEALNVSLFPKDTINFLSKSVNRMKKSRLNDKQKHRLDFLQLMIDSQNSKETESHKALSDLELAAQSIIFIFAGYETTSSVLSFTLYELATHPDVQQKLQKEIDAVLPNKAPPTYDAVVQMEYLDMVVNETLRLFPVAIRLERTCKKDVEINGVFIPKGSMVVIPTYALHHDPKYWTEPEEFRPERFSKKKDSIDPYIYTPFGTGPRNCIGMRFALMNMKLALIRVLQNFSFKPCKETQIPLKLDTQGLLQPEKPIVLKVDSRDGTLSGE

[14] = Metabolic stability in monkey liver microsome assessed as half life at 1 uM measured after 60 min in presence of NADPH by LC-MS/MS analysis; type: ADME, Macaca mulatta; conditions: rhesus monkey, liver microsomes
Cytochrome P450 2B6 = biological target: T2, Cytochrome P450 2B6 (Homo sapiens, UniProt P20813); experiment: Inhibition of human CYP2B6 preincubated for 10 min followed by addition of NADPH and measured after 10 min by LC-MS/MS analysis; type: ADME
T2 sequence (P20813 whole entry): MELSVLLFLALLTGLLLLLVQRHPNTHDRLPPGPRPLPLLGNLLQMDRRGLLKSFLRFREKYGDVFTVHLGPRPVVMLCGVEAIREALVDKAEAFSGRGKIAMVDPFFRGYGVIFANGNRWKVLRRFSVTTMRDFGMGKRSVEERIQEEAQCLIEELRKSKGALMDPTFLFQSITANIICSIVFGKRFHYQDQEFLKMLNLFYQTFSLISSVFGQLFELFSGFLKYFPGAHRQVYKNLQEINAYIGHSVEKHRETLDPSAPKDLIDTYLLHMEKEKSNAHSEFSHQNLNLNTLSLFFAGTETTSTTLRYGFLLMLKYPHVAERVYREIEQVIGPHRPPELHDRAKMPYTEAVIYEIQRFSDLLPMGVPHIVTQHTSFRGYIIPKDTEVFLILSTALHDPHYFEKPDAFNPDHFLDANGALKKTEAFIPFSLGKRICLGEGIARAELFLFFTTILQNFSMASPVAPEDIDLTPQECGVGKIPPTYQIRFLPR

[15] = Apparent permeability in MDCK-MDR1 cells from basal to apical side at 10 uM; type: ADME, cell-based, Canis lupus familiaris; conditions: dog
[16] = Cmax in Cynomolgus monkey at 1 mg/kg, iv measured upto 24 hrs; type: ADME, organism-based, Macaca fascicularis; set-up: route intravenous, dose 1 mg/kg, time <=24; conditions: in vivo
Mus musculus [17] = experiment: Neuroprotective activity against MPTP-induced C57BL/6 mouse model of Parkinson's disease assessed as increase in DA level in striatum at 0.625 to 2.5 mg/kg, ip pretreated for 15 mins followed by MPTP challenge and measured after 8 days post MPTP challenge by HPLC electrochemical detection method; type: functional, organism-based; conditions: dose 0.625-2.5 mg/kg, time 8.0 day
[18] = Plasma protein binding in mouse assessed as unbound fraction at 1 uM measured after 5 hrs by LC-MS/MS analysis; type: ADME, cell-free
Cytochrome P450 2C19 = Cytochrome P450 2C19 (Homo sapiens, UniProt P33261); experiment: Inhibition of human CYP2C19 preincubated for 10 min followed by addition of NADPH and measured after 45 min by LC-MS/MS analysis; type: ADME
Chain of Cytochrome P450 2C19 (P33261 whole entry): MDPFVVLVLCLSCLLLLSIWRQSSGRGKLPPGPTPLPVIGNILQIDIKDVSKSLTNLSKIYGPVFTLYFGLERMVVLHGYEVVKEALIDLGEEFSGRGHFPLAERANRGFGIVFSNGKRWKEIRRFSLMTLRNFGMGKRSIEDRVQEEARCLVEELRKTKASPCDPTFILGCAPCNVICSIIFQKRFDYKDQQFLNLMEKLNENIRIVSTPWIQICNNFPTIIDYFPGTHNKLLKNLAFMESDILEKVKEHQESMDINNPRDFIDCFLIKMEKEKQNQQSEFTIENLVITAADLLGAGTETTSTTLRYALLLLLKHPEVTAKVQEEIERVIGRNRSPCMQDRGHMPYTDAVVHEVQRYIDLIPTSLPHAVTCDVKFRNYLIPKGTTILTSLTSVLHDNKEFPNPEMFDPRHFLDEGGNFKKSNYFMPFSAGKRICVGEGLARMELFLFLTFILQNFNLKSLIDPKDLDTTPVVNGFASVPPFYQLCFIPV

[19] = Apparent permeability in MDCK-MDR1 cells from apical to basal side at 10 uM; type: ADME, cell-based, Canis lupus familiaris; conditions: dog

half-life at 1 µM [1]: 134 min
IC50 (Cytochrome P450 2D6): > 29 µM
IC50 (Cytochrome P450 3A4): > 29 µM
clearance [3]: 7.54 mL/min/kg
fraction unbound at 5 h, 1 µM [4]: 0.0504
half-life [5]: 34.2 min
half-life [6]: 168 min
IC50 (Cytochrome P450 2C9): > 29 µM
half-life at 1 µM [7]: 11.5 min
AUC(0-t) at 24 h [8]: 1400 ng·h/mL
bioavailability [9]: 107%
Cmax [11]: 2280 ng/mL
Cmax [12]: 1000 ng/mL
IC50 (Cytochrome P450 1A2): > 29 µM
half-life at 1 µM [13]: 51.1 min
IC50 (Cytochrome P450 3A5): > 29 µM
half-life at 1 µM [14]: 36.9 min
IC50 (Cytochrome P450 2B6): > 29 µM
Papp B→A at 10 µM [15]: 22.8 ×10⁻⁶ cm/s
Cmax [16]: 924 ng/mL
fraction unbound at 5 h, 1 µM [18]: 0.0516
IC50 (Cytochrome P450 2C19): > 29 µM
Papp A→B at 10 µM [19]: 28.9 ×10⁻⁶ cm/s
SMILES: NC(=O)[C@@H]1C[C@H](F)CN1Cc1ccc(OCc2cccc(F)c2)cc1
Activity (Mus musculus [2]): Active
inhibition (Mus musculus [10]): Active
Ratio IC50 (Homo sapiens): 2440
Activity (Salmonella typhimurium): Non-Toxic
Activity (Mus musculus [17]): Active
